Where only a bound is given, the exact number is not on record here.

Data set [1] in a line: Stability in aqueous solution. It counts as physicochemical.
The nature of the next data set: physchem. As to conditions: pH 7, water.

One may read the solubility as how much of the substance goes into solution per volume. A high value points to much dissolved substance. `CS(=O)(=O)c1ccc([C@@H](O)[C@@H](CF)NC(=O)C(Cl)Cl)cc1` [Florfenicol, D-(threo)-1-p-methylsulfonyl phenyl-2-dichloroacetamido-3-fluoro-1-propanol]: in data set [1], the “hydrolysis when dissolved in water” value is on record as “readily hydrolyses”. Moreover, in the data set “physchem”, the solubility is not above 1300 µg/mL.
